{
  "source": "patent US11369597B2",
  "about": "“Methods for treating pancreatic cancer using combination therapies” (Ipsen Biopharm Ltd., priority 2012, dated 2022)",
  "origin": "cited, not measured here",
  "key": {"[1]": {"conditions": "metabolite formed by carboxylesterases"}, "[2]": {"test_system": "advanced pancreatic cancer", "conditions": "first-line"}, "[3]": {"test_system": "advanced and metastatic pancreatic adenocarcinoma"}, "[4]": {"conditions": "for incidence of grade 4 neutropenia: 350 mg/m^2 once every-3-weeks"}},
  "note": "Read-outs that look alike come from different tables or passages of the source.",
  "data": [
    {"smiles": "CCc1c2c(nc3ccc(O)cc13)-c1cc3c(c(=O)n1C2)COC(=O)[C@]3(O)CC", "note": "[SN-38]", "values": [
      {"measurement": "SN-38 more active than irinotecan", "setting": "[1]", "result": "100-1000 fold"}
    ]},
    {"smiles": "Nc1ccn([C@@H]2O[C@H](CO)[C@@H](O)C2(F)F)c(=O)n1", "note": "[gemcitabine]", "values": [
      {"measurement": "1-year survival rate", "setting": "[2]", "result": 17, "unit": "%"},
      {"measurement": "median survival", "setting": "[2]", "result": 5.9, "unit": "months"},
      {"measurement": "median overall prolongation of survival", "setting": "[3]; second line after 5-fluorouracil", "result": 3.9, "unit": "months"},
      {"measurement": "1-year survival rate", "setting": "[3]; single-agent, first-line", "result": "about 20%"}
    ]},
    {"smiles": "CCc1c2c(nc3ccc(OC(=O)N4CCC(N5CCCCC5)CC4)cc13)-c1cc3c(c(=O)n1C2)COC(=O)[C@]3(O)CC", "note": "[irinotecan, 7-ethyl-10-[4-(1-piperidino)-1-piperidino] carbonyloxycampothecin]", "values": [
      {"measurement": "incidence of grade 4 neutropenia", "setting": "[4]; patients heterozygous (UGT1A1 6/7 genotype)", "result": 12.5, "unit": "%"},
      {"measurement": "incidence of grade 4 neutropenia", "setting": "[4]; patients homozygous for the UGT1A1*28 allele", "result": 50, "unit": "%"},
      {"measurement": "grade 4 neutropenia", "setting": "[4]; patients homozygous for the wild-type allele (UGT1A1 6/6 genotype)", "result": "no grade 4 neutropenia was observed"}
    ]}
  ]
}
